Measured values taken from patent publication US9708628B2, “Cationic lipid having improved intracellular kinetics” (NOF CORPORATION, priority 2011, dated 2017).
Entries after “also recorded” stand apart in the source; their conditions may differ.

Key:
HT1080 cells [1] = assay: Gene expression by MEND (luciferase assay, RLU/mg protein); type: cell-based; details: for gene expression activity (luciferase activity per cell protein): cationic lipid:SOPE:Chol=3:4:3, PEG2000DSG, pDNA 0.4 μg/well, 24 hr; for gene expression activity: B-2-4:DOPE:Chol=3:3:4, B-2-5:POPE:Chol=3:3:4, B-2:SOPE:Chol=5:3:2, PEG2000-DMG
Protocol: Using B-2 (Example 1), B-2-1 (Comparative Example 1), and DODAP (Comparative Example 2) as cationic lipids, MENDs having a composition of cationic lipid:SOPE:Chol=3:4:3 were prepared by the method described in [Experimental Example 1] (2). For the preparation, PEG2000DSG was used as PEG lipid, and MEND solutions corresponding to 0.55 mM of the lipid concentration were prepared. For cationic MEND, lipids having a composition of DOTAP:DOPE:Chol:=3:4:3 were used, and the cationic MEND was prepared according to the method described in [Experimental Example 1] (3).
HT1080 cells were plated on a 24-well plate at 4×10^4 cells/500 μL/well 24 hr before, various MENDs were diluted with DMEM (FBS 10%+) to a pDNA amount of 0.4 μg/500 μL/well and transfected. 24 hr later, the cells were washed with PBS(−) (500 μL), 1× Lysis buffer was added to each well by 75 μL, and the mixture was stood at −80° C. for 30 min or longer. The frozen 24-well plate was thawed on ice, the cells were detached with a cell scraper, and the total amount thereof was transferred into an Eppendorf tube and centrifuged under the conditions of 15000 rpm, 4° C., 5 min. The supernatant (50 μL) was recovered in a different Eppendorf tube, and used for luciferase assay and BCA assay.
20 μL thereof was mixed with a Luciferase assay substrate (50 μL), and the luciferase activity in a given time was measured by a luminometer. The obtained lysate was diluted 5-fold with DDW to achieve 25 μL total volume. Thereto was added BCA Protein Assay Reagent (200 μL), and the mixture was stood at 37° C. for 30 min. Thereafter, the absorbance at 562 nm was measured, and the protein amount of the sample was calculated from the absorbance of a BSA solution having a known concentration. The luciferase activity (RLU) was adjusted by dividing with protein amount (mg), and the luciferase activity per cell protein amount (RLU/mg protein) was calculated.
Using B-2 (Example 1), B-2-2 (Example 2), and B-2-3 (Example 3) as cationic lipids, MENDs having a composition of cationic lipid:SOPE:Chol=3:4:3 were prepared by the method described in [Experimental Example 1] (2). For the preparation, PEG2000DSG was used as PEG lipid, and MEND solutions corresponding to 0.55 mM of the lipid concentration were prepared. The gene expression was evaluated by the method described in [Example 4] (2).
Using compositions of B-2-4 (Example 4):DOPE:Chol=3:3:4, B-2-5 (Example 5):POPE:Chol=3:3:4, B-2 (Example 1):SOPE:Chol=5:3:2 as lipids, MENDs were prepared according to [Experimental Example 1](1) and (2). For the preparation, PEG2000-DMG was used as PEG lipid, and MEND solutions corresponding to 0.55 mM of the lipid concentration were prepared.
The gene expression activity was evaluated by the method described in [Experimental Example 4] (2).

HT1080 cells [2] = assay: Intracellular kinetics: endosomal escape of rhodamine-labeled pDNA (confocal microscopy); type: cell-based; details: for gene endosomal escape efficiency, quantified (order): FIG. 7; for endosomal escape potency (colocalization of pDNA red and endosome/lysosome green): cationic lipid:SOPE:Chol=5:3:2 or DOTAP:DOPE:Chol=3:4:3, 3 hr after transfection
Protocol: For MEND preparation, the Rhodamine-labeled pDNA prepared by the method of [Experimental Example 1] (4) was used. MEND having a composition of cationic lipid:SOPE:Chol=5:3:2 was prepared by the method described in [Experimental Example 1] (2). For the preparation, PEG2000-DMG was used as PEG lipid, and MEND solutions corresponding to 0.55 mM of the lipid concentration were prepared. For cationic MEND, lipids having a composition of DOTAP (Comparative Example 3):DOPE:Chol:=3:4:3 were used, and the cationic MEND was prepared according to the method described in [Experimental Example 1] (3). In addition, cationic MEND having a lipid composition of DOTAP:DOPE:Chol:=3:4:3 was also prepared by a simple hydration method to have a lipid concentration of 0.55 mM.
HT1080 cells were plated on a glass bottom dish at 1×10^5 cells/2 mL/dish 24 hr before. Since MENDs composed of B-2 or DODAP show low uptake activity into cells, MEND was diluted with Krebs buffer to pDNA 8 μg/1 mL Krebs buffer/dish. As for B-2-1 or DOTAP MEND having a high uptake activity, MEND was diluted with Krebs buffer to pDNA 1.6 μg/1 mL Krebs buffer/dish and transfected into the cells. After 2.5 hr, Lysotracker Green (Life technologies) was added at 1 μL/dish and, 30 min later, Hoechst 33342 (Dojindo) was further added at 1 μL/dish. 3 hr after the transfection, the cells were washed twice with heparin (20 units/mL, 2 mL), Krebs buffer (1 mL) was added, and the mixture was observed by a confocal laser scan microscope.
Rhodamine-labeled pDNA, endosome/lysosome, and nucleus were shown in pseudo colors of red, green and blue, respectively. The endosomal escape potency was evaluated by the colocalization of red and green. […] Furthermore, the gene endosomal escape efficiency was quantified to find higher efficiency in the order of DODAP<B-2-1<B-2.

[3] = Particle size and surface potential of siRNA-encapsulated MEND (ethanol dilution method); type: physicochemical; details: siRNA/protamine MEND, PEG2000-DMG 3 mol %
Protocol: A siRNA solution and protamine (CALBIOCHEM) solution were diluted with 10 mM HEPES buffer (pH 5.3) to 0.3 mg/mL and 0.2 mg/mL, respectively. While stirring 0.3 mg/mL siRNA solution (250 μL), 0.2 mg/mL protamine solution (250 μL) was added dropwise in small portions to prepared an electrostatic complex of siRNA and protamine (N/P ratio=1.0) as a core of the vector.
A lipid solution in ethanol was mixed at a ratio of B-2:SOPE:Chol=5:3:2 for B-2 MEND (Example 1), at a ratio of B-2-4:DOPE:Chol=3:3:4 for B-2-4 MEND (Example 4), and at a ratio of B-2-5:POPE:Chol=3:4:3 for B-2-5 MEND (Example 5), to a total lipid of 660 nmol in a 5 mL tube. Further, PEG2000-DMG was added as PEG lipid in an amount equivalent to 3 mol % of the total lipid, and ethanol was added to a total volume of 400 μL each. While stirring the lipid solution by a vortex mixer, a solution (400 μL) of a nucleic acid electrostatic complex composed of siRNA/protamine prepared in [Experimental Example 27] was mixed, then 10 mM HEPES buffer (pH 5.3, 2.4 mL) was quickly added, and the mixture was vigorously stirred. The mixture was subjected to centrifugal ultrafiltration using Amicon Ultra-15 100K device (Millipore) at 1000 g, 10 min, 30° C. The mixture was sufficiently diluted with 10 mM HEPES buffer (pH 7.4), and again subjected to centrifugal ultrafiltration. This solution was adjusted to an object lipid concentration with 10 mM HEPES buffer (pH 7.4).
The particle size and surface potential were measured using the dynamic light scattering method (Zetasizer Nano; Malvern). The particle size and surface potential of various MENDs prepared by the preparation method of [Experimental Example 28] are shown in Table 5.

Row | Compound | gene expression activity (luciferase activity per cell protein) (HT1080 cells [1]) | gene endosomal escape efficiency, quantified (order) (HT1080 cells [2]) | endosomal escape potency (colocalization of pDNA red and endosome/lysosome green) (HT1080 cells [2]) | PDI [3] | size (nm) [3] [nm] | zeta (mV) [3] [mV] | gene expression activity (HT1080 cells [1]) | gene transfer activity divided by the intracellular uptake amount (HT1080 cells [1]; FIG. 4)
1 | CCCCCCCCCCCCCC(=O)OCCCN(C)CCCCCCN(C)CCCOC(=O)CCCCCCCCCCCCC [Example B-2-1, reference compound] | exceeded that of a conventionally-known cationic lipid, DODAP | DODAP<B-2-1<B-2 | red signal alone was present |  |  |  |  | 
2 | CC1=C(/C=C/C(C)=C/C=C/C(C)=C/C(=O)OCCCN(C)CCSSCCN(C)CCCOC(=O)/C=C(C)/C=C/C=C(C)/C=C/C2=C(C)CCCC2(C)C)C(C)(C)CCC1 [Example B-2-4] |  |  |  | 0.11 | 186 | −5.1 | significantly higher than the activity of B-2 and B-2-5 | 
3 | Cc1c(C)c2c(c(C)c1OC(=O)CCC(=O)OCCCN(C)CCSSCCN(C)CCCOC(=O)CCC(=O)Oc1c(C)c(C)c3c(c1C)CCC(C)(CCCC(C)CCCC(C)CCCC(C)C)O3)CCC(C)(CCCC(C)CCCC(C)CCCC(C)C)O2 (stereo not drawn) [Example B-2-5] |  |  |  | 0.13 | 218 | −9.1 | equivalent to the activity of B-2 | 
4 | CCCCCCCC/C=C\CCCCCCCC(=O)OCC(C[N+](C)(C)C)OC(=O)CCCCCCC/C=C\CCCCCCCC (stereo not drawn) [DOTAP, reference compound] |  |  | red signal alone was present |  |  |  |  | 
5 | CCCCCCCCCCCCCC(=O)OCCCN(C)CCSSCCN(C)CCCOC(=O)CCCCCCCCCCCCC [Example B-2] | exceeded that of a conventionally-known cationic lipid, DODAP; also recorded: significantly higher than that of MEND prepared from B-2-1; also recorded: equivalent to that of DOTAP | DODAP<B-2-1<B-2 | red signal alone was present | 0.07 | 186 | −1.7 |  | high as compared to conventional DOTAP, DODAP and B-2-1
6 | CCCCCCCC/C=C\CCCCCCCC(=O)OCC(CN(C)C)OC(=O)CCCCCCC/C=C\CCCCCCCC (stereo not drawn) [DODAP, reference compound] |  | DODAP<B-2-1<B-2 | colocalization of red and green was notable |  |  |  |  | 
